According to patent publication US9073961B2, “Substitution derivatives of N6 -benzyladenosine-5′-monophosphate, methods of preparation thereof, use thereof as medicaments, and therapeutic preparations containing these compounds” (UNIVERZITA PALACKEHO V OLOMOUCI, priority 2010, dated 2015):

Tests used:
[1] = tested on: G-361 (human malignant melanoma); assay: Calcein AM cytotoxicity assay, G-361; type: cell-based; conditions: 72 hours incubation
Summary of the method: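 Fluorescence of calcein from hydrolysed Calcein AM (1 μg/ml final, 1 h) measured after 72 h compound exposure at 37 °C, 5% CO2. Compounds tested at six 3-fold dilutions up to 166.7 μM, triplicates. GI50 = concentration halving esterase activity versus untreated control wells.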

Human lymphocytes = assay: Immunosuppressive activity, 3H-thymidine incorporation in concanavalin A activated lymphocytes; type: cell-based; conditions: 72 hours, [3H]-TdR incorporation, read-out: Human lymphocytes ED50
Description: One of the most important parameters of specific cellular immunity is the proliferative response of lymphocytes to antigens or polyclonal mitogens. The majority of normal mammalian peripheral lymphocytes comprise resting cells. Antigens or nonspecific polyclonal mitogens have the capacity to activate lymphoid cells and this is accompanied by dramatic changes of intracellular metabolism (mitochondrial activity, protein synthesis, nucleic acids synthesis, formation of blastic cells and cellular proliferation). […] Variety of in vitro assays was developed to measure proliferative response of lymphocytes. The most commonly used is ^3H-thymidine incorporation method.
During cell proliferation, DNA has to be replicated before the cell is divided into two daughter cells. This close association between cell doublings and DNA synthesis is very attractive for assessing cell proliferation. If labelled DNA precursors are added to the cell culture, cells that are about to divide incorporate the labelled nucleotide into their DNA. Traditionally, those assays usually involve the use of radiolabelled nucleosides, particularly tritiated thymidine ([^3H]-TdR). The amount of [^3H]-TdR incorporated into the cellular DNA is quantified by liquid scintillation counting.
Human heparinized peripheral blood was obtained from healthy volunteers by cubital vein punction. The blood was diluted in PBS (1:3) and mononuclear cells were separated by centrifugation in Ficoll-Hypaque density gradient (Pharmacia, 1.077 g/ml) at 2200 rpm for 30 minutes. Following centrifugation, lymphocytes were washed in PBS and resuspended in cell culture medium (RMPI 1640, 2 mM glutamine, 100 U/ml penicillin, 100 μg/ml streptomycin, 10% fetal calf serum and sodium bicarbonate).
The cells were diluted at target density of 1.100.000 cells/ml and were added by pipette (180 μl) into 96-well microtiter plates. Four-fold dilutions of the intended test concentration were added at time zero in 20 μl aliquots to the microtiter plate wells. Usually, test compound was evaluated at six 4-fold dilutions. In routine testing, the highest well concentration was 266.7 μM. All drug concentrations were examined in duplicates. All wells with exception of unstimulated controls were activated with 50 μl of concanavalin A (25 μg/ml). Incubations of cells with test compounds lasted for 72 hours at 37° C., in 5% CO2 atmosphere and 100% humidity. At the end of incubation period, the cells were assayed by using the [^3H]-TdR:
Cell cultures were incubated with 0.5 μCi (20 μl of stock solution 500 μCi/ml) per well for 6 hours at 37° C. and 5% CO2. The automated cell harvester was used to lyse cells in water and adsorb the DNA onto glass-fiber filters in the format of microtiter plate. The DNA incorporated [^3H]-TdR was retained on the filter while unincorporated material passes through. The filters were dried at room temperature overnight, sealed into a sample bag with 10-12 ml of scintillant. The amount of [^3H]-TdR present in each filter (in cpm) was determined by scintillation counting in a Betaplate liquid scintillation counter. The effective dose of immunosuppressant (ED) was calculated using the following equation: ED=(CCPMdrug exposed well/mean CCPMcontrol wells)×100%. The ED50 value, the drug concentration inhibiting proliferation of 50% of lymphocytes, was calculated from the obtained dose response curves.
To evaluate immunosuppressive activity of substituted adenines, their ability to inhibit polyclonal mitogen induced proliferation of normal human lymphocytes was analyzed (Table 4). […] Effective immunosuppressive dose of new derivatives under in vitro conditions was close to 10-40 μM.

EC50 (Human lymphocytes): 6.7 µM
Structure (SMILES): O=P(O)(O)OC[C@H]1O[C@@H](n2cnc3c(NCc4ccccc4O)ncnc32)[C@H](O)[C@@H]1O [Compound 21, 6-(2-hydroxybenzylamino)purine riboside-5′-monophosphate]
GI50 [1]: 13.5 µM
